This note sets out measurements from ChEMBL document CHEMBL2034954, “Synthesis and antimycobacterial activity of novel 1,3-dimethylisocyanurate derivatives” (Eur J Med Chem, 2012).

Data set [1] has as its system Mycobacterium tuberculosis. Put plainly: Bacteriostatic activity against Mycobacterium tuberculosis H37Rv at 0.05 ug/mL assessed as growth index after 4 days by radiometric growth assay (reference value: 210 growth index). It counts as functional.
A further data set deals with Mus musculus. In words: Acute toxicity in white outbred mouse assessed as mortality at 3000 mg/kg, po after 14 days. Conditions: in vivo, 336 h. The class given is organism-based. Set-up: dose 3000 mg/kg, route oral.
The test system of another data set is Bacillus cereus. Put plainly: Antibacterial activity against Bacillus cereus 8035 up to 1 ug/mL after 5 days by broth dilution method. It counts as functional, organism-based.
The test system of data set [2] is Mycobacterium tuberculosis. Put plainly: Bacteriostatic activity against Mycobacterium tuberculosis H37Rv at 0.05 ug/mL assessed as growth index after 5 days by radiometric growth assay (reference value: 210 growth index). The class given is functional.
A further data set deals with Candida albicans. In words: Antifungal activity against Candida albicans 855-653 up to 1 ug/mL after 14 days by broth dilution method. It counts as functional, organism-based.
Data set [3] has as its system Mycobacterium tuberculosis. Put plainly: Bacteriostatic activity against Mycobacterium tuberculosis H37Rv at 0.05 ug/mL assessed as growth index after 7 days by radiometric growth assay (reference value: 210 growth index). It counts as functional.
The next data set deals with Staphylococcus aureus. In words: Antibacterial activity against Staphylococcus aureus 209p up to 1 ug/mL after 5 days by broth dilution method. It counts as functional, organism-based.
For data set [4], the system named is Trichophyton mentagrophytes. In words: Antifungal activity against Trichophyton mentagrophytes 1773 up to 1 ug/mL after 14 days by broth dilution method. It counts as functional, organism-based.
Data set [5] concerns Mycobacterium tuberculosis. In words: Bacteriostatic activity against Mycobacterium tuberculosis H37Rv at 0.1 ug/mL assessed as growth index after 7 days by radiometric growth assay (reference value: 210 growth index). It counts as functional.
Data set [6] concerns Mycobacterium tuberculosis. In words: Bacteriostatic activity against Mycobacterium tuberculosis H37Rv at 0.1 ug/mL assessed as growth index after 5 days by radiometric growth assay (reference value: 210 growth index). The class given is functional.
In data set [7] the test system is Mycobacterium tuberculosis. Put plainly: Antitubercular activity against Mycobacterium tuberculosis H37Rv after […] by radiometric growth assay. It counts as functional.
The next data set has as its system Escherichia coli. In words: Antibacterial activity against Escherichia coli F-50 up to 1 ug/mL after 5 days by broth dilution method. The class given is functional, organism-based.
Data set [8] concerns Mycobacterium tuberculosis. Put plainly: Bacteriostatic activity against Mycobacterium tuberculosis H37Rv at 0.1 ug/mL assessed as growth index after 10 days by radiometric growth assay (reference value: 210 growth index). It counts as functional.
Data set [9] deals with Mycobacterium tuberculosis. Put plainly: Bacteriostatic activity against Mycobacterium tuberculosis H37Rv at 0.1 ug/mL assessed as growth index after 4 days by radiometric growth assay (reference value: 210 growth index). It counts as functional.
Data set [10] relates to Mycobacterium tuberculosis. Put plainly: Bacteriostatic activity against Mycobacterium tuberculosis H37Rv at 0.05 ug/mL assessed as growth index after 3 days by radiometric growth assay (reference value: 210 growth index). The class given is functional.
A further data set concerns Rattus norvegicus. Put plainly: Acute toxicity in rat assessed as mortality at 3000 mg/kg, po after 14 days. It counts as organism-based. Details: dose 3000 mg/kg, route oral. The settings on record: in vivo, 336 h.
The test system of a further data set is Aspergillus niger. Put plainly: Antifungal activity against Aspergillus niger BKMF-1119 up to 1 ug/mL after 14 days by broth dilution method. The class given is functional, organism-based.
The test system of data set [11] is Mycobacterium tuberculosis. Put plainly: Antitubercular activity against Mycobacterium tuberculosis H37Rv at 1 ug/mL by radiometric growth assay. The class given is functional, organism-based.
Data set [12] deals with Mycobacterium tuberculosis. Put plainly: Antitubercular activity against Mycobacterium tuberculosis H37Rv at 10 ug/mL by radiometric growth assay. The class given is functional, organism-based.
Data set [13] relates to Mycobacterium tuberculosis. Put plainly: Bacteriostatic activity against Mycobacterium tuberculosis H37Rv at 0.1 ug/mL assessed as growth index after 3 days by radiometric growth assay (reference value: 210 growth index). It counts as functional.
Data set [14] relates to Mycobacterium tuberculosis. In words: Bacteriostatic activity against Mycobacterium tuberculosis H37Rv at 5 ug/mL assessed as growth index after 5 days by radiometric growth assay (reference value: 210 growth index). It counts as functional.
Data set [15] has as its system Mycobacterium tuberculosis. Put plainly: Bacteriostatic activity against Mycobacterium tuberculosis H37Rv at 1 ug/mL assessed as growth index after 5 days by radiometric growth assay (reference value: 210 growth index). It counts as functional.
In data set [16] the test system is Mycobacterium tuberculosis. In words: Bacteriostatic activity against Mycobacterium tuberculosis H37Rv at 5 ug/mL assessed as growth index after 10 days by radiometric growth assay (reference value: 210 growth index). It counts as functional.
For data set [17], the system named is Mycobacterium tuberculosis. Put plainly: Bacteriostatic activity against Mycobacterium tuberculosis H37Rv at 1 ug/mL assessed as growth index after 4 days by radiometric growth assay (reference value: 210 growth index). It counts as functional.
For data set [18], the system named is Mycobacterium tuberculosis. In words: Bacteriostatic activity against Mycobacterium tuberculosis H37Rv at 1 ug/mL assessed as growth index after 7 days by radiometric growth assay (reference value: 210 growth index). It counts as functional.
Data set [19] concerns Mycobacterium tuberculosis. Put plainly: Bacteriostatic activity against Mycobacterium tuberculosis H37Rv at 5 ug/mL assessed as growth index after 3 days by radiometric growth assay (reference value: 210 growth index). The class given is functional.
The subject of data set [20] is Mycobacterium tuberculosis. Put plainly: Bacteriostatic activity against Mycobacterium tuberculosis H37Rv at 1 ug/mL assessed as growth index after 10 days by radiometric growth assay (reference value: 210 growth index). It counts as functional.
Data set [21] deals with Mycobacterium tuberculosis. Put plainly: Bacteriostatic activity against Mycobacterium tuberculosis H37Rv at 5 ug/mL assessed as growth index after 4 days by radiometric growth assay (reference value: 210 growth index). It counts as functional.
In data set [22] the test system is Mycobacterium tuberculosis. Put plainly: Bacteriostatic activity against Mycobacterium tuberculosis H37Rv at 1 ug/mL assessed as growth index after 3 days by radiometric growth assay (reference value: 210 growth index). The class given is functional.
Data set [23] relates to Mycobacterium tuberculosis. Put plainly: Bacteriostatic activity against Mycobacterium tuberculosis H37Rv at 5 ug/mL assessed as growth index after 7 days by radiometric growth assay (reference value: 210 growth index). It counts as functional.
The test system of data set [24] is Mycobacterium tuberculosis. In words: Antitubercular activity against Mycobacterium tuberculosis H37Rv at 80 ug/mL by radiometric growth assay. The class given is functional, organism-based.
Data set [25] relates to Mycobacterium tuberculosis. Put plainly: Antitubercular activity against Mycobacterium tuberculosis H37Rv at 40 ug/mL by radiometric growth assay. The class given is functional, organism-based.

≈ marks a conversion by molar mass, not a printed value. Calls of active or inactive are those of the source. The calls are words filed in the database; no cut-off is given here.

In the case of `Cn1c(=O)n(C)c(=O)n(CCCCC[S+]([O-])CC(=O)NN)c1=O` (configuration not stated), the Growth_index in data set [1] was 27; in data set [2], 32; in data set [3] it was greater than 90; in data set [5], 2; in [6], 1; in data set [8], 2. The Growth_index is 0 in data set [9], 15 in [10] and 0 in data set [13]. In addition, the Activity entry in the data set with Mus musculus and in the data set with Rattus norvegicus was “Non-toxic” in each case. Also, the result (in the data set on Bacillus cereus; in the data set with Candida albicans; in the data set on Staphylococcus aureus; in [4]; in the data set on Escherichia coli; in the data set on Aspergillus niger) was inactive. For the same compound, in data set [7], the minimal inhibitory concentration (MIC) is 0.05 µg/mL (≈ 0.144 µM). Further, the result in data set [11] and in data set [12] was Active.

In the case of `Cn1c(=O)n(C)c(=O)n(CCCCCC[S+]([O-])CC(N)=O)c1=O` (configuration not stated), the Growth_index in data set [14] came to 42; in [15] it was 47; in [16] it was 66; in data set [17] it was 45; in data set [18], 54; in data set [19], 15. Further, the Growth_index is given as greater than 90 in data set [20], 31 in [21], 25 in data set [22] and 66 in data set [23]. For the same compound, in [7], it took 1 µg/mL (≈ 2.89 µM) to inhibit growth (MIC).

For `CO[C@H]1/C=C/O[C@@]2(C)Oc3c(C)c(O)c4c(O)c(c(/C=N/N5CCN(C)CC5)c(O)c4c3C2=O)NC(=O)/C(C)=C\C=C\[C@H](C)[C@H](O)[C@@H](C)[C@@H](O)[C@@H](C)[C@H](OC(C)=O)[C@@H]1C`, the outcome in [24] and in data set [25] was Active.

In the case of `Cn1c(=O)n(C)c(=O)n(C[S+]([O-])CC(=O)NN)c1=O` (configuration not stated), the Growth_index in data set [14] was 67; in [15], 78; in [17], 48; in [18], greater than 90; in data set [19], 10; in data set [21], 17. For the same compound, the Growth_index in data set [22] is listed as 15; in data set [23], greater than 90. In [7], this compound yielded an MIC of 1 µg/mL (≈ 3.43 µM).
